We go through 5 compounds from PubChem BioAssay AID270 (DTP/NCI, 2004).

The experiment has as its system BDF1 mice, s.c. Lewis lung carcinoma, T/C %. Description: NCI In Vivo Anticancer Drug Screen. Data for tumor model Lewis Lung Carcinoma (subcutaneous) in B6D2F1 (BDF1) mice. The method, boiled down:
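First, mice carry a transplantable tumor. Next, groups receive either compound or vehicle. Finally, survival or tumor dimensions in the dosed animals are divided by the corresponding control figure.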

“And” between values parts separate entries of the source, which are not always exact repeats. Identical values can stand only once. Results filed as inconclusive are left out.

Regarding `O=C(O)CC(NC(=O)CP(=O)(O)O)C(=O)O` (stereo not drawn), the T/C is 120 % of control and 121 % of control (endpoint: median survival time, dose: 12.5 mg/kg/injection, schedule: Q01DX009 (ip), vehicle: saline, higher = longer survival); 120 % of control (endpoint: median survival time, dose: 17.1 mg/kg/injection, schedule: Q01DX004 (ip), vehicle: saline, higher = longer survival); 124 % of control (endpoint: median survival time, dose: 18.8 mg/kg/injection, schedule: Q01DX004 (ip), vehicle: saline, higher = longer survival); 121 % of control (endpoint: median survival time, dose: 23.3 mg/kg/injection, schedule: Q01DX009 (ip), vehicle: saline, higher = longer survival); 226 % of control (endpoint: median survival time, dose: 25.0 mg/kg/injection, schedule: Q01DX004 (ip), vehicle: saline, higher = longer survival); 178 % of control (endpoint: median survival time, dose: 34.1 mg/kg/injection, schedule: Q01DX004 (ip), vehicle: saline, higher = longer survival). The T/C reads like this: (endpoint: median survival time, dose: 37.5 mg/kg/injection, schedule: Q01DX004 (ip), vehicle: saline, higher = longer survival) 120 % of control; (endpoint: median survival time, dose: 38.9 mg/kg/injection, schedule: Q01DX004 (ip), vehicle: saline, higher = longer survival) 123 % of control; (endpoint: median survival time, dose: 38.9 mg/kg/injection, schedule: Q01DX009 (oral), vehicle: saline, higher = longer survival) 100 % of control; (endpoint: median survival time, dose: 50.0 mg/kg/injection, schedule: Q01DX004 (ip), vehicle: saline, higher = longer survival) 225 % of control; (endpoint: median survival time, dose: 50.0 mg/kg/injection, schedule: Q01DX005 (ip), vehicle: saline, higher = longer survival) 95 % of control; (endpoint: median survival time, dose: 64.0 mg/kg/injection, schedule: Q01DX004 (ip), vehicle: saline, higher = longer survival) 108 % of control. The T/C was 175 % of control and 197 % of control (endpoint: median survival time, dose: 64.8 mg/kg/injection, schedule: Q01DX004 (ip), vehicle: saline, higher = longer survival); 167 % of control (endpoint: median survival time, dose: 64.8 mg/kg/injection, schedule: Q01DX009 (ip), vehicle: saline, higher = longer survival); 103 % of control (endpoint: median survival time, dose: 64.8 mg/kg/injection, schedule: Q01DX009 (oral), vehicle: saline, higher = longer survival); 247 % of control (endpoint: median survival time, dose: 68.3 mg/kg/injection, schedule: Q01DX004 (ip), vehicle: saline, higher = longer survival); 112 % of control (endpoint: median survival time, dose: 68.3 mg/kg/injection, schedule: Q01DX004 (ip), vehicle: suspension in saline, higher = longer survival); 122 % of control (endpoint: median survival time, dose: 70.0 mg/kg/injection, schedule: Q01DX009 (oral), vehicle: saline, higher = longer survival). For the same compound, the T/C was 247 % of control (endpoint: median survival time, dose: 75.0 mg/kg/injection, schedule: Q01DX004 (ip), vehicle: saline, higher = longer survival); 226 % of control (endpoint: median survival time, dose: 100.0 mg/kg/injection, schedule: Q01DX004 (ip), vehicle: saline, higher = longer survival); 197 % of control and 299 % of control (endpoint: median survival time, dose: 108.0 mg/kg/injection, schedule: Q01DX004 (ip), vehicle: saline, higher = longer survival); 222 % of control (endpoint: median survival time, dose: 108.0 mg/kg/injection, schedule: Q01DX009 (ip), vehicle: saline, higher = longer survival); 107 % of control (endpoint: median survival time, dose: 108.0 mg/kg/injection, schedule: Q01DX009 (oral), vehicle: saline, higher = longer survival); 118 % of control (endpoint: median survival time, dose: 108.0 mg/kg/injection, schedule: Q04DX004 (ip), vehicle: saline, higher = longer survival). The T/C reads like this: (endpoint: median survival time, dose: 110.0 mg/kg/injection, schedule: Q01DX009 (oral), vehicle: saline, higher = longer survival) 122 % of control; (endpoint: median survival time, dose: 116.0 mg/kg/injection, schedule: Q01DX009 (ip), vehicle: saline, higher = longer survival) 181 % of control; (endpoint: median survival time, dose: 125.0 mg/kg/injection, schedule: Q01DX009 (ip), vehicle: saline, higher = longer survival) 176 % of control and 194 % of control; (endpoint: median survival time, dose: 133.0 mg/kg/injection, schedule: Q01DX007 (other), vehicle: saline, higher = longer survival) 206 % of control; (endpoint: median survival time, dose: 133.0 mg/kg/injection, schedule: Q01DX007 (sc), vehicle: saline, higher = longer survival) 206 % of control; (endpoint: median survival time, dose: 136.0 mg/kg/injection, schedule: Q01DX004 (ip), vehicle: suspension in saline, higher = longer survival) 204 % of control. Further, the T/C (endpoint: median survival time, dose: 136.5 mg/kg/injection, schedule: Q01DX004 (ip), vehicle: saline, higher = longer survival) is 248 % of control; the T/C (endpoint: median survival time, dose: 140.0 mg/kg/injection, schedule: Q01DX009 (ip), vehicle: saline, higher = longer survival) is 166 % of control; the T/C (endpoint: median survival time, dose: 150.0 mg/kg/injection, schedule: Q01DX004 (ip), vehicle: saline, higher = longer survival) is 248 % of control; the T/C (endpoint: median survival time, dose: 150.0 mg/kg/injection, schedule: Q01DX009 (ip), vehicle: saline, higher = longer survival) is 186 % of control; the T/C (endpoint: median survival time, dose: 160.0 mg/kg/injection, schedule: Q01DX009 (oral), vehicle: saline, higher = longer survival) was 119 % of control; the T/C (endpoint: median survival time, dose: 167.0 mg/kg/injection, schedule: Q01DX010 (ip), vehicle: saline, higher = longer survival) was 152 % of control. Further, the T/C reads like this: (endpoint: median survival time, dose: 175.0 mg/kg/injection, schedule: Q01DX009 (ip), vehicle: saline, higher = longer survival) 163 % of control; (endpoint: median survival time, dose: 178.0 mg/kg/injection, schedule: Q01DX009 (ip), vehicle: saline, higher = longer survival) 178 % of control and 237 % of control; (endpoint: median survival time, dose: 180.0 mg/kg/injection, schedule: Q01DX009 (ip), vehicle: saline, higher = longer survival) 159 % of control and 222 % of control; (endpoint: median survival time, dose: 180.0 mg/kg/injection, schedule: Q01DX009 (oral), vehicle: saline, higher = longer survival) 102 % of control; (endpoint: median survival time, dose: 180.0 mg/kg/injection, schedule: Q04DX004 (ip), vehicle: saline, higher = longer survival) 178 % of control; (endpoint: median survival time, dose: 200.0 mg/kg/injection, schedule: Q01DX004 (ip), vehicle: saline, higher = longer survival) 226 % of control. The T/C by setting is: (endpoint: median survival time, dose: 200.0 mg/kg/injection, schedule: Q01DX005 (ip), vehicle: saline, higher = longer survival) 115 % of control; (endpoint: median survival time, dose: 200.0 mg/kg/injection, schedule: Q01DX007 (other), vehicle: saline, higher = longer survival) 206 % of control; (endpoint: median survival time, dose: 200.0 mg/kg/injection, schedule: Q01DX007 (sc), vehicle: saline, higher = longer survival) 206 % of control; (endpoint: median survival time, dose: 200.0 mg/kg/injection, schedule: Q01DX009 (ip), vehicle: saline, higher = longer survival) 225 % of control; (endpoint: median survival time, dose: 240.0 mg/kg/injection, schedule: Q04DX003 (ip), vehicle: saline, higher = longer survival) 150 % of control; (endpoint: median survival time, dose: 250.0 mg/kg/injection, schedule: Q01DX010 (ip), vehicle: saline, higher = longer survival) 158 % of control. The T/C (endpoint: median survival time, dose: 265.0 mg/kg/injection, schedule: Q01DX009 (ip), vehicle: saline, higher = longer survival) is 195 % of control; the T/C (endpoint: median survival time, dose: 273.0 mg/kg/injection, schedule: Q01DX004 (ip), vehicle: saline, higher = longer survival) is 195 % of control; the T/C (endpoint: median survival time, dose: 273.0 mg/kg/injection, schedule: Q01DX004 (ip), vehicle: suspension in saline, higher = longer survival) was 177 % of control; the T/C (endpoint: median survival time, dose: 300.0 mg/kg/injection, schedule: Q01DX007 (sc), vehicle: saline, higher = longer survival) is 198 % of control; the T/C (endpoint: median survival time, dose: 300.0 mg/kg/injection, schedule: Q04DX004 (ip), vehicle: saline, higher = longer survival) is 169 % of control; the T/C (endpoint: median survival time, dose: 343.0 mg/kg/injection, schedule: Q04DX003 (ip), vehicle: saline, higher = longer survival) was 153 % of control and 186 % of control (2×). The T/C was 95 % of control (endpoint: median survival time, dose: 375.0 mg/kg/injection, schedule: Q01DX010 (ip), vehicle: saline, higher = longer survival); 224 % of control (endpoint: median survival time, dose: 400.0 mg/kg/injection, schedule: Q01DX004 (ip), vehicle: saline, higher = longer survival); 150 % of control and 186 % of control and 193 % of control (endpoint: median survival time, dose: 490.0 mg/kg/injection, schedule: Q04DX003 (ip), vehicle: saline, higher = longer survival); 176 % of control (endpoint: median survival time, dose: 500.0 mg/kg/injection, schedule: Q04DX004 (ip), vehicle: saline, higher = longer survival); 64 % of control (endpoint: median survival time, dose: 833.0 mg/kg/injection, schedule: Q04DX004 (ip), vehicle: saline, higher = longer survival); 94 % of control (endpoint: median survival time, dose: 50.0 ml/mouse/injection, schedule: Q01DX005 (ip), vehicle: saline, higher = longer survival). For the same compound, for the setting “endpoint: median survival time, dose: 200.0 ml/mouse/injection, schedule: Q01DX005 (ip), vehicle: saline, higher = longer survival”, the T/C was 117 % of control.
Turning to `O=NN(CCCl)C(=O)Nc1ccc(CCO)cc1`, the T/C reads like this: (endpoint: mean tumor weight, dose: 10.0 mg/kg/injection, schedule: Q01DX001 (ip), vehicle: carboxymethylcellulose (CMC), higher = larger tumour) 43 % of control; (endpoint: mean tumor weight, dose: 20.0 mg/kg/injection, schedule: Q01DX001 (ip), vehicle: carboxymethylcellulose (CMC), higher = larger tumour) 22 % of control.
Regarding `c1ccc(OP(Oc2ccccc2)Oc2ccccc2)cc1`, the T/C (endpoint: mean tumor weight, dose: 37.0 mg/kg/injection, schedule: Q01DX011 (ip), vehicle: other, higher = larger tumour) is 110 % of control; the T/C (endpoint: mean tumor weight, dose: 55.0 mg/kg/injection, schedule: Q01DX011 (ip), vehicle: other, higher = larger tumour) was 103 % of control; the T/C (endpoint: mean tumor weight, dose: 83.0 mg/kg/injection, schedule: Q01DX011 (ip), vehicle: other, higher = larger tumour) is 91 % of control; the T/C (endpoint: mean tumor weight, dose: 125.0 mg/kg/injection, schedule: Q01DX011 (ip), vehicle: other, higher = larger tumour) was 79 % of control.
Regarding `Cc1nnc(N)s1`, the T/C runs as follows: (endpoint: mean tumor weight, dose: 133.0 mg/kg/injection, schedule: Q01DX011 (ip), vehicle: other, higher = larger tumour) 80 % of control; (endpoint: mean tumor weight, dose: 200.0 mg/kg/injection, schedule: Q01DX011 (ip), vehicle: other, higher = larger tumour) 77 % of control; (endpoint: mean tumor weight, dose: 300.0 mg/kg/injection, schedule: Q01DX011 (ip), vehicle: other, higher = larger tumour) 79 % of control.
With `C/C=C(\C)C(=O)OC1C(C)C2(O)C(C=C(CO)CC3(O)C(=O)C(C)=CC32)C2C(C)(C)C12OC(=O)CCCCCCCCC` (stereo not drawn), the T/C is, setting by setting: (endpoint: median survival time, dose: 0.13 mg/kg/injection, schedule: Q01DX009 (ip), vehicle: saline + alcohol, higher = longer survival) 103 % of control; (endpoint: median survival time, dose: 0.25 mg/kg/injection, schedule: Q01DX009 (ip), vehicle: saline + alcohol, higher = longer survival) 95 % of control; (endpoint: median survival time, dose: 0.5 mg/kg/injection, schedule: Q01DX009 (ip), vehicle: saline + alcohol, higher = longer survival) 92 % of control.
